What all share (assay type): cell-based
The target in assay [1] is T1, GLP-1 receptor (Homo sapiens, UniProt P43220). Nature of the assay: PathHunter β-arrestin assay, GLP-1 receptor. Also noted: host or cells: PathHunter CHO-K1 GLP1R β-Arrestin Cell Line. As to conditions: β-arrestin-2 recruitment, PathHunter CHO-K1 GLP1R β-Arrestin Cell Line, 90 min at 37° C.; normalized to GLP-1; read-out: GLP-1R β Arrestin EC50.
The target in assay [2] is T2, GIP receptor (Homo sapiens, UniProt P48546).
T2 sequence (P48546 22-466): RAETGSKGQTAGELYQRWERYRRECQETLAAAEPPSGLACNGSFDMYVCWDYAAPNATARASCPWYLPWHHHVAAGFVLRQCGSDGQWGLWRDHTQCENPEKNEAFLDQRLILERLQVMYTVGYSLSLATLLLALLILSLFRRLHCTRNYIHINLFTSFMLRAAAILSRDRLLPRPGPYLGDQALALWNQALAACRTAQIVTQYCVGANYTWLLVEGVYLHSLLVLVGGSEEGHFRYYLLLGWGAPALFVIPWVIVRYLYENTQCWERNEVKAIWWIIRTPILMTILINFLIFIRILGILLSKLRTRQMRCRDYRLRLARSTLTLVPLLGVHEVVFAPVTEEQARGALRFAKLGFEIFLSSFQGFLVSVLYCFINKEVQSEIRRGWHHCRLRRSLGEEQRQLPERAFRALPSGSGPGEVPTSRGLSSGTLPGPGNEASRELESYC
Nature of the assay: HitHunter cAMP assay, GIP receptor. As to conditions: for EC50: CHO cells stably expressing GIP receptor, cAMP accumulation, 30 min, read-out: EC50 GIP-1R; for Emax: CHO cells, cAMP, normalized to maximum signal from GIP (high) and DMSO (low), read-out: Emax GIP-1R.

Assay [3] concerns the target T1, GLP-1 receptor. Nature of the assay: HitHunter cAMP assay, GLP-1 receptor. As to conditions: for EC50: CHO cells stably expressing human GLP-1 receptor, cAMP accumulation, 30 min, read-out: EC50 GLP-1R; for Emax: CHO cells, cAMP, normalized to maximum signal from GLP-1 (high) and DMSO (low), read-out: Emax GLP-1R.
For assay [4], the target named is T2, GIP receptor. Nature of the assay: PathHunter β-arrestin assay, GIP receptor. Also on record: host or cells: PathHunter CHO-K1 GIPR β-Arrestin Cell Line. As to conditions: β-arrestin-2 recruitment, PathHunter CHO-K1 GIPR β-Arrestin Cell Line, 90 min at 37° C.; normalized to GIP; read-out: GIPR β Arrestin EC50.

EC50 and Emax data for four compounds are collected here from US12281149B2, “Modulators of G-protein coupled receptors” (priority 2021, dated 2025).

*1 amine or outer side, *2 acyl side, *3 side chain or, on linkers, in order; H or OH if unused. Where a SMILES comes first, the peptide text is derived from it. Side-chain parts run from the residue outwards. [ ]: non-standard residue; d: D form. The star is where a group is joined. Isobutyryl(2-(3-CN-5-F-Ph)) = CC(C)(C(=O)*)c1cc(F)cc(C#N)c1; Cyclopropanecarbonyl(1-Ph) = O=C(C1(c2ccccc2)CC1)*; C20 diacid = O=C(O)CCCCCCCCCCCCCCCCCCC(=O)*; X75 = C[C@@](Cc1nn[nH]n1)(N[*:1])C(=O)[*:2]; γGlu = O=C(O)[C@H](CCC(=O)[*:2])N[*:1]; β3hA = C[C@H](N)CC(=O)O; AEEA = NCCOCCOCC(=O)O; Aib = CC(C)(N)C(=O)O; βAla = NCCC(=O)O Where only a bound is given, the exact number is not on record here.

T1 sequence (P43220 24-463): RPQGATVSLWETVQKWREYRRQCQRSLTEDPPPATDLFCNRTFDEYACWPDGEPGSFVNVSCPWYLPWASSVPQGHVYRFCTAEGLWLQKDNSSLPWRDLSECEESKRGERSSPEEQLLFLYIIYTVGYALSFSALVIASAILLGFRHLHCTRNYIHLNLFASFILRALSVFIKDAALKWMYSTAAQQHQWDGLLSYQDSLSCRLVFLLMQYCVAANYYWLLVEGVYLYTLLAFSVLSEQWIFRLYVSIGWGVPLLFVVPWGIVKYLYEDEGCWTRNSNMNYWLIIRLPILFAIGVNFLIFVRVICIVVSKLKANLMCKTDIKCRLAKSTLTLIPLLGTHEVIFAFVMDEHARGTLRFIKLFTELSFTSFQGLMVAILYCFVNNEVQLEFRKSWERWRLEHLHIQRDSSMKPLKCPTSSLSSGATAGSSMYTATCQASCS

Take `CC[C@H](C)[C@H](NC(=O)[C@H](CC(C)C)NC(=O)[C@H](Cc1c[nH]c2ccccc12)NC(=O)[C@H](CCC(N)=O)NC(=O)[C@@H](NC(=O)[C@H](Cc1ccccc1)NC(=O)[C@H](C)NC(=O)[C@H](CCCCNC(=O)COCCOCCNC(=O)COCCOCCNC(=O)CC[C@H](NC(=O)CCCCCCCCCCCCCCCCCCC(=O)O)C(=O)O)NC(=O)[C@H](CCC(N)=O)NC(=O)[C@H](C)NC(=O)[C@@H](NC(=O)[C@H](CCCCN)NC(=O)[C@H](CC(=O)O)NC(=O)[C@H](CC(C)C)NC(=O)C(C)(C)NC(=O)[C@@H](NC(=O)[C@H](CO)NC(=O)[C@H](Cc1ccc(O)cc1)NC(=O)[C@H](CC(=O)O)NC(=O)[C@H](CO)NC(=O)[C@@H](NC(=O)[C@H](Cc1ccccc1)NC(=O)[C@@H](NC(=O)CNC(=O)[C@H](CCC(=O)O)NC(=O)C[C@H](C)NC(=O)C(C)(C)c1cc(F)cc(C#N)c1)[C@@H](C)O)[C@@H](C)O)[C@@H](C)CC)[C@@H](C)CC)C(C)C)C(=O)N[C@@H](C)C(=O)NCC(=O)NCC(=O)N1CCC[C@H]1C(=O)N[C@@H](CO)C(=O)N[C@@H](CO)C(=O)NCC(=O)N[C@@H](C)C(=O)N1CCC[C@H]1C(=O)N1CCC[C@H]1C(=O)N1CCC[C@H]1C(=O)N[C@@H](CO)C(N)=O` [Compound 222] ({Isobutyryl(2-(3-CN-5-F-Ph))}-[β3hA]EGTFTSDYSI[Aib]LDKIAQK([AEEA-AEEA-γGlu-C20 diacid])AFVQWLIAGGPSSGAPPPS-NH2): the EC50 in assay [1] was greater than 1 µM; in assay [2], 0.01 to 0.1 µM; in assay [3], 0.0001 to 0.001 µM; in assay [4], greater than 1 µM. Besides, the results for the maximum response (Emax) in assay [2] and in assay [3] were 101% and 108%, respectively.

With `CC[C@H](C)[C@H](NC(=O)[C@H](CO)NC(=O)[C@H](CCCCNC(=O)COCCOCCNC(=O)COCCOCCNC(=O)CC[C@H](NC(=O)CCCCCCCCCCCCCCCCCCC(=O)O)C(=O)O)NC(=O)[C@H](CC(=O)O)NC(=O)[C@H](CO)NC(=O)[C@@H](NC(=O)[C@H](Cc1ccccc1)NC(=O)[C@@H](NC(=O)CNC(=O)[C@H](CCC(=O)O)NC(=O)CCNC(=O)[C@]1(c2ccccc2)CNC(=O)C1)[C@@H](C)O)[C@@H](C)O)C(=O)N[C@@H](Cc1ccc(O)cc1)C(=O)N[C@@H](CC(C)C)C(=O)N[C@@H](CC(=O)O)C(=O)N[C@@H](CCCCN)C(=O)N[C@@H](CCC(N)=O)C(=O)N[C@@H](C)C(=O)N[C@@H](C)C(=O)NC(C)(C)C(=O)N[C@@H](CCC(=O)O)C(=O)N[C@@H](Cc1ccccc1)C(=O)N[C@H](C(=O)N[C@@H](CC(N)=O)C(=O)N[C@@H](Cc1c[nH]c2ccccc12)C(=O)N[C@@H](CC(C)C)C(=O)N[C@@H](CC(C)C)C(=O)N[C@@H](C)C(=O)NCC(=O)NCC(=O)N1CCC[C@H]1C(=O)N[C@@H](CO)C(=O)N[C@@H](CO)C(=O)NCC(=O)N[C@@H](C)C(=O)N1CCC[C@H]1C(=O)N1CCC[C@H]1C(=O)N1CCC[C@H]1C(=O)N[C@@H](CO)C(N)=O)C(C)C` (single isomer, unassigned) [Compound 129], the concentration for a half-maximal effect (EC50) in assay [1] is greater than 1 µM; in assay [2], 0.01 to 0.1 µM; in assay [3], 0.001 to 0.01 µM; in assay [4] it was greater than 1 µM. Further, the Emax in assay [2] came to 106%; in assay [3], 108%.

Consider `CC[C@H](C)[C@H](NC(=O)[C@H](CC(C)C)NC(=O)[C@H](Cc1c[nH]c2ccccc12)NC(=O)[C@H](CCC(N)=O)NC(=O)[C@@H](NC(=O)[C@H](Cc1ccccc1)NC(=O)[C@H](C)NC(=O)[C@H](CCCCNC(=O)COCCOCCNC(=O)COCCOCCNC(=O)CC[C@H](NC(=O)CCCCCCCCCCCCCCCCCCC(=O)O)C(=O)O)NC(=O)[C@H](CCC(N)=O)NC(=O)[C@H](C)NC(=O)[C@@H](NC(=O)[C@H](CCCCN)NC(=O)[C@H](CC(=O)O)NC(=O)[C@H](CC(C)C)NC(=O)C(C)(C)NC(=O)[C@@H](NC(=O)[C@H](CO)NC(=O)[C@H](Cc1ccc(O)cc1)NC(=O)[C@H](CC(=O)O)NC(=O)[C@H](CO)NC(=O)[C@@H](NC(=O)[C@H](Cc1ccccc1)NC(=O)[C@@H](NC(=O)CNC(=O)[C@](C)(Cc1nn[nH]n1)NC(=O)CCNC(=O)C(C)(C)c1cc(F)cc(C#N)c1)[C@@H](C)O)[C@@H](C)O)[C@@H](C)CC)[C@@H](C)CC)C(C)C)C(=O)N[C@@H](C)C(=O)NCC(=O)NCC(=O)N1CCC[C@H]1C(=O)N[C@@H](CO)C(=O)N[C@@H](CO)C(=O)NCC(=O)N[C@@H](C)C(=O)N1CCC[C@H]1C(=O)N1CCC[C@H]1C(=O)N1CCC[C@H]1C(=O)N[C@@H](CO)C(N)=O` [Compound 126] ({Isobutyryl(2-(3-CN-5-F-Ph))-βAla}-[X75]GTFTSDYSI[Aib]LDKIAQK([AEEA-AEEA-γGlu-C20 diacid])AFVQWLIAGGPSSGAPPPS-NH2), for which the EC50 in assay [1] was greater than 1 µM; in assay [2], 0.1 to 1 µM; in assay [3] it was 0.1 to 1 µM; in assay [4], greater than 1 µM. Also, the Emax is 97% in assay [2] and 59% in assay [3].

In the case of `CC[C@H](C)[C@H](NC(=O)[C@H](CC(C)C)NC(=O)[C@H](Cc1c[nH]c2ccccc12)NC(=O)[C@H](CCC(N)=O)NC(=O)[C@@H](NC(=O)[C@H](Cc1ccccc1)NC(=O)[C@H](C)NC(=O)[C@H](CCCCNC(=O)COCCOCCNC(=O)COCCOCCNC(=O)CC[C@H](NC(=O)CCCCCCCCCCCCCCCCCCC(=O)O)C(=O)O)NC(=O)[C@H](CCC(N)=O)NC(=O)[C@H](C)NC(=O)[C@@H](NC(=O)[C@H](CCCCN)NC(=O)[C@H](CC(=O)O)NC(=O)[C@H](CC(C)C)NC(=O)C(C)(C)NC(=O)[C@@H](NC(=O)[C@H](CO)NC(=O)[C@H](Cc1ccc(O)cc1)NC(=O)[C@H](CC(=O)O)NC(=O)[C@H](CO)NC(=O)[C@@H](NC(=O)[C@H](Cc1ccccc1)NC(=O)[C@@H](NC(=O)CNC(=O)[C@H](CCC(=O)O)NC(=O)CCNC(=O)C1(c2ccccc2)CC1)[C@@H](C)O)[C@@H](C)O)[C@@H](C)CC)[C@@H](C)CC)C(C)C)C(=O)N[C@@H](C)C(=O)NCC(=O)NCC(=O)N1CCC[C@H]1C(=O)N[C@@H](CO)C(=O)N[C@@H](CO)C(=O)NCC(=O)N[C@@H](C)C(=O)N1CCC[C@H]1C(=O)N1CCC[C@H]1C(=O)N1CCC[C@H]1C(=O)N[C@@H](CO)C(N)=O` [Compound 199] ({Cyclopropanecarbonyl(1-Ph)-βAla}-EGTFTSDYSI[Aib]LDKIAQK([AEEA-AEEA-γGlu-C20 diacid])AFVQWLIAGGPSSGAPPPS-NH2), the EC50 is greater than 1 µM in assay [1], 0.01 to 0.1 µM in assay [2], 0.001 to 0.01 µM in assay [3] and greater than 1 µM in assay [4]. Moreover, the Emax in assay [2] came out at 102%; in assay [3], 100%.
